Values quoted from earlier work, collected in US20030004141A1, “Medical devices, compositions and methods for treating vulnerable plaque” (priority 2001, published 2003).

Details: general statement from cited pre-clinical and clinical studies

## CNC(=O)[C@@H](NC(=O)[C@H](CC(C)C)[C@H](O)C(=O)NO)C(C)(C)C [marimastat]
  in vivo toxicity: minimal in vivo toxicity
